Holding throughout (type): functional
The test system of test [1] is Mythimna separata. In words: Insecticidal activity against second-instar larvae Mythimna separata (Oriental armyworm) in compound treated corn leaves assessed as mortality at 500 mg/L measured after 48 hr.
Test [2] deals with Aphis craccivora. In words: Insecticidal activity against Aphis craccivora (cowpea aphid) in compound treated horsebean plant leaves assessed as mortality at 500 mg/L measured after 24 hr by leaf-dip method.
In test [3] the test system is Aphis craccivora. In words: Insecticidal activity against Aphis craccivora (cowpea aphid) in compound treated horsebean plant leaves assessed as mortality measured after 24 hr by leaf-dip method.
Test [4] concerns Nilaparvata lugens. In words: Insecticidal activity against compound resistant second-instar larvae Nilaparvata lugens (brown planthopper) in compound rice seedlings assessed as toxicity at 25 degC measured after 6 days relative to control.
Test [5] has as its system Nilaparvata lugens. In words: Insecticidal activity against compound sensitive second-instar larvae Nilaparvata lugens (brown planthopper) in compound rice seedlings assessed as toxicity at 25 degC measured after 6 days relative to control.
The subject of test [6] is Nilaparvata lugens. In words: Insecticidal activity against compound resistant second-instar larvae Nilaparvata lugens (brown planthopper) in compound rice seedlings assessed as mortality at 25 degC measured after 6 days. Conditions: 144 h.
The test system of test [7] is Nilaparvata lugens. In words: Insecticidal activity against compound sensitive second-instar larvae Nilaparvata lugens (brown planthopper) in compound rice seedlings assessed as mortality at 25 degC measured after 6 days. The settings on record: 144 h.
The test system of test [8] is Mythimna separata. In words: Insecticidal activity against second-instar larvae Mythimna separata (Oriental armyworm) in compound treated corn leaves assessed as mortality measured after 48 hr.

Structures are written as SMILES.

A word on the mortality: it is the percentage killed. As a reminder, the LC50 is the concentration lethal to half of the exposed cells or organisms.

As to `Cc1ccc([C@H]2C([N+](=O)[O-])=C3N(Cc4ccc(Cl)nc4)CCN3[C@H](c3ccc(C)s3)[C@@]2(C2=NCCN2Cc2ccc(Cl)nc2)[N+](=O)[O-])s1`, the mortality at 500 µg/mL in the test on Mythimna separata [1] is 0%; with Aphis craccivora [2] it was 100%.
Consider `O=[N+]([O-])C1=C2N(Cc3ccc(Cl)nc3)CCN2[C@H](c2ccco2)[C@@](C2=NCCN2Cc2ccc(Cl)nc2)([N+](=O)[O-])[C@H]1c1ccco1`, for which the mortality at 500 µg/mL worked out at 0% in the test with Mythimna separata [1] and 87% in the test with Aphis craccivora [2].
Take `O=[N+]([O-])C1=C2N(Cc3ccc(Cl)nc3)CCN2[C@H](c2ccco2)[C@@](C2=NCCN2Cc2ccc(Cl)nc2)([N+](=O)[O-])[C@@H]1c1ccco1`: the median lethal concentration (LC50) was 4.43 µM with Aphis craccivora [3], 3.76 µM in the test with Nilaparvata lugens [6], 1.07 µM in the test on Nilaparvata lugens [7] and 26.5 µM in the test on Mythimna separata [8]. The mortality at 500 µg/mL in the test on Mythimna separata [1] and with Aphis craccivora [2] was 100% throughout. The values for the Ratio in the test with Nilaparvata lugens [4] and with Nilaparvata lugens [5] were 10.32 and 1.62, respectively.
Turning to `Cc1ccc([C@@H]2C([N+](=O)[O-])=C3N(Cc4ccc(Cl)nc4)CCN3[C@H](c3ccc(C)o3)[C@@]2(C2=NCCN2Cc2ccc(Cl)nc2)[N+](=O)[O-])o1`, the figures for the LC50 in the test with Aphis craccivora [3] and in the test with Mythimna separata [8] were 1.31 µM and 43 µM, respectively. The mortality at 500 µg/mL in the test on Mythimna separata [1] and in the test on Aphis craccivora [2] was 100% throughout.
As for `O=[N+]([O-])C1=C2N(Cc3ccc(Cl)nc3)CCN2[C@H](c2cccs2)[C@@](C2=NCCN2Cc2ccc(Cl)nc2)([N+](=O)[O-])[C@H]1c1cccs1`, the values for the mortality at 500 µg/mL with Mythimna separata [1] and in the test on Aphis craccivora [2] were 0% and 85.6%, respectively.
Turning to `O=[N+]([O-])/N=C1\NCCN1Cc1ccc(Cl)nc1` [IMIDACLOPRID], the median lethal concentration (LC50) came out at 35 µM in the test with Aphis craccivora [3], 38.8 µM with Nilaparvata lugens [6], 1.73 µM in the test on Nilaparvata lugens [7] and 125 µM with Mythimna separata [8]. For the same compound, the mortality at 500 µg/mL in the test with Mythimna separata [1] and in the test with Aphis craccivora [2] was 100% in each case. Further, the Ratio in the test on Nilaparvata lugens [4] and in the test on Nilaparvata lugens [5] was 1 in each case.
Take `O=[N+]([O-])C1=C2N(Cc3ccc(Cl)nc3)CCN2[C@H](c2cccs2)[C@@](C2=NCCN2Cc2ccc(Cl)nc2)([N+](=O)[O-])[C@@H]1c1cccs1`: the LC50 came out at 46.8 µM in the test with Aphis craccivora [3] and 44.1 µM with Mythimna separata [8]. Further, the mortality at 500 µg/mL in the test on Mythimna separata [1] and in the test with Aphis craccivora [2] was 100% throughout.
With `Cc1ccc([C@@H]2C([N+](=O)[O-])=C3N(Cc4ccc(Cl)nc4)CCN3[C@H](c3ccc(C)s3)[C@@]2(C2=NCCN2Cc2ccc(Cl)nc2)[N+](=O)[O-])s1`, the results for the LC50 with Aphis craccivora [3] and in the test on Mythimna separata [8] were 3.79 µM and 27.9 µM, respectively. The mortality at 500 µg/mL in the test with Mythimna separata [1] and in the test on Aphis craccivora [2] was 100% throughout.

These data come from ChEMBL document CHEMBL3045918, “Synthesis, crystal structure, and insecticidal activities of highly congested hexahydroimidazo[1,2-a]pyridine derivatives: effect of conformation on activities” (2010).
